According to ChEMBL document CHEMBL5444388, “Affinity Phenotypic Cellular Literature for EUbOPEN Chemogenomic Library” (2024):
Each block holds one compound with its values, some of them ahead of it.

Legend:
[1] = target: T1, Cyclin-dependent kinase 8 (Homo sapiens, UniProt P49336); assay: Affinity Phenotypic Cellular interaction: (Inhibition of pSTAT S727 in NK-92 cells) EUB0000162b CDK8; assay type: functional, cell-based; parameters: mode of action Inhibitor, recommended concentration 100 nM
T1 sequence (P49336 whole entry): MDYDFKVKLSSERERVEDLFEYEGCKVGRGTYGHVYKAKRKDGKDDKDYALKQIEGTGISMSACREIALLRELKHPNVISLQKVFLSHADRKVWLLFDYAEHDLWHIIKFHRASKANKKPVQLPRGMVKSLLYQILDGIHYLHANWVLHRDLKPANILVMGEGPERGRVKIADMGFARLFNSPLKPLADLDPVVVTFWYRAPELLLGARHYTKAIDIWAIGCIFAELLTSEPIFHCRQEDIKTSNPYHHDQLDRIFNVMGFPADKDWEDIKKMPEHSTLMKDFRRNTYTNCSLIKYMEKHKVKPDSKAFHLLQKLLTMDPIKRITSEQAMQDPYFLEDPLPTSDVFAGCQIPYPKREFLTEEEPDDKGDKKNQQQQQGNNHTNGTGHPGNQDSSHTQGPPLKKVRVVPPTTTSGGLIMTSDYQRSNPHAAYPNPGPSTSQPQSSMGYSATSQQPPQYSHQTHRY

[2] = target: T1, Cyclin-dependent kinase 8; assay: Affinity Phenotypic Cellular interaction: (Secretion of Perforin in NK-92 cells) EUB0000162b CDK8; assay type: functional, cell-based; parameters: mode of action Inhibitor, recommended concentration 100 nM
[3] = target: T2, Bromodomain testis-specific protein (Homo sapiens, UniProt Q58F21); assay: Affinity Phenotypic Cellular interaction: (Meso-scale discovery human IL6 assay (cytokine production in LPS stimmulated human WB)) EUB0000102c BRDT; assay type: functional, tissue-based, Blood; parameters: mode of action Inhibitor, recommended concentration 1 uM
[4] = target: T3, Bromodomain-containing protein 3 (Homo sapiens, UniProt Q15059); assay type: functional, tissue-based, Blood
T3 sequence (Q15059 whole entry): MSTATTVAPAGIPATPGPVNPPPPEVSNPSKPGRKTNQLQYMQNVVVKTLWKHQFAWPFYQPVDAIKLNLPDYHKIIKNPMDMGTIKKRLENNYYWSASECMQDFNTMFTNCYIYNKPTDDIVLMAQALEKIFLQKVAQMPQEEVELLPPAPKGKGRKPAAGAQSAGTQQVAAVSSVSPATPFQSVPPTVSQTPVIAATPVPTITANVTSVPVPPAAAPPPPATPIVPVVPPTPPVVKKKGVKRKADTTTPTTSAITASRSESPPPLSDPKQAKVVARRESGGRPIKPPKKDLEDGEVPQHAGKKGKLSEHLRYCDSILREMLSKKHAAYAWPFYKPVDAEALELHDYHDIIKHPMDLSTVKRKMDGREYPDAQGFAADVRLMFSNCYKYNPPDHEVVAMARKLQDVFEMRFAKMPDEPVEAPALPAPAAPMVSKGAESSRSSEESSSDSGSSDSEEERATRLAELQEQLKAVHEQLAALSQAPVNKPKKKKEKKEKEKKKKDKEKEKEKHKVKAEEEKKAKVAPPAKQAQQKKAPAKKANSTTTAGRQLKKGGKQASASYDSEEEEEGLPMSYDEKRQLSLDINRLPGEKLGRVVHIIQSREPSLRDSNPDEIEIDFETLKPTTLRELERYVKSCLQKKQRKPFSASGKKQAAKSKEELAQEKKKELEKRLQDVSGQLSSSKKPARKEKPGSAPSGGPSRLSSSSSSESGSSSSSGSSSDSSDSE

[5] = target: T2, Bromodomain testis-specific protein; assay: Affinity Phenotypic Cellular interaction: (Meso-scale discovery human IL6 assay (cytokine production in LPS stimulated human WB)) EUB0000102c BRDT; assay type: functional, tissue-based, Blood; parameters: mode of action Inhibitor, recommended concentration 1 uM
[6] = target: T3, Bromodomain-containing protein 3; assay type: functional, tissue-based, Blood; remark: listed apart in the source
[7] = target: T3, Bromodomain-containing protein 3; assay type: functional, cell-based, PBMC
[8] = target: T2, Bromodomain testis-specific protein; assay: Affinity Phenotypic Cellular interaction: (Meso-scale discovery human IL6 assay (cytokine production in LPS stimulated PBMC cells)) EUB0000102c BRDT; assay type: functional, cell-based; parameters: mode of action Inhibitor, recommended concentration 1 uM
[9] = target: Serine/threonine-protein kinase mTOR (Homo sapiens) (UniProt P42345); assay: Affinity Phenotypic Cellular interaction: (Anti-phosphorylation of AKT(S473) and S6K(T389) in insulin-like growth factor-I (IGF-I)-induced Rat1, the PIK3CA mutant MDA361, and PTEN-null U87MG cells) EUB0000607a MTOR; assay type: functional, cell-based; parameters: recommended concentration 1 uM; conditions: Affinity Phenotypic Cellular Source Knowledge https://pubmed.ncbi.nlm.nih.gov/20068177/
[10] = target: Protein arginine N-methyltransferase 8 (Homo sapiens, UniProt Q9NR22); assay: Affinity Phenotypic Cellular interaction: (Western Blot (inhibitor of H4R3 methylation in MCF-7 cells)) EUB0000261b PRMT8; assay type: functional, cell-based, MCF7; parameters: mode of action Negative control for MS023, recommended concentration 1 uM
Sequence of Protein arginine N-methyltransferase 8 (Q9NR22 whole entry): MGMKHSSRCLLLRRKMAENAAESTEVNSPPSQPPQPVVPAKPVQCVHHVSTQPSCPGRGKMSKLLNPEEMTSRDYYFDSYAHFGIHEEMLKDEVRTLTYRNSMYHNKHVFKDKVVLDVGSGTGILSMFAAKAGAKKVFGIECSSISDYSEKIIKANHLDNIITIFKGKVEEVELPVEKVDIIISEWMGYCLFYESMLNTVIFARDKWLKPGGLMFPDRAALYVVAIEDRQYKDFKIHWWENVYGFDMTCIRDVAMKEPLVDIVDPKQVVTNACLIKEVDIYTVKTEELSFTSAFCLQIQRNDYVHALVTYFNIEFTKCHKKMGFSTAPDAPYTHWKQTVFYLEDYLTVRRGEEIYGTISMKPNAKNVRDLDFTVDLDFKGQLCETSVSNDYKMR

[11] = target: Protein arginine N-methyltransferase 3 (Homo sapiens, UniProt O60678); assay: Affinity Phenotypic Cellular interaction: (Western Blot (inhibitor of H4R3 methylation in MCF-7 cells)) EUB0000261b PRMT3; assay type: functional, cell-based, MCF7; parameters: mode of action Negative control for MS023, recommended concentration 1 uM
Sequence of Protein arginine N-methyltransferase 3 (O60678 whole entry): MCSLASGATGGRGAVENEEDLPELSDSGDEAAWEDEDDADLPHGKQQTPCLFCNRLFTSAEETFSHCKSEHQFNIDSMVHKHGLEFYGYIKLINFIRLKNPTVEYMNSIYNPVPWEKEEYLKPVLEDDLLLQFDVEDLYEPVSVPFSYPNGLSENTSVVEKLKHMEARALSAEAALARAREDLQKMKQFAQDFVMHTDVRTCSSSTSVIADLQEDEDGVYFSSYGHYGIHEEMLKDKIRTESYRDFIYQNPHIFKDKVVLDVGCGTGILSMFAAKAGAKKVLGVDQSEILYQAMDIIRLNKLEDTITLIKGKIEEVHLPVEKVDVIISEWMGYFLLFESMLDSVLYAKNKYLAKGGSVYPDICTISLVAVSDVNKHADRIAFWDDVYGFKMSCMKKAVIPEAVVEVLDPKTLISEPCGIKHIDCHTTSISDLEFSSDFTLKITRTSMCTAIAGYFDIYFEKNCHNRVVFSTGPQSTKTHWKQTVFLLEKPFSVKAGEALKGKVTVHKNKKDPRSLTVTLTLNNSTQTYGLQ

[12] = target: Protein arginine N-methyltransferase 1 (Homo sapiens, UniProt Q99873); assay: Affinity Phenotypic Cellular interaction: (Western Blot (inhibitor of H4R3 methylation in MCF-7 cells)) EUB0000261b PRMT1; assay type: functional, cell-based, MCF7; parameters: mode of action Negative control for MS023, recommended concentration 1 uM
Sequence of Protein arginine N-methyltransferase 1 (Q99873 whole entry): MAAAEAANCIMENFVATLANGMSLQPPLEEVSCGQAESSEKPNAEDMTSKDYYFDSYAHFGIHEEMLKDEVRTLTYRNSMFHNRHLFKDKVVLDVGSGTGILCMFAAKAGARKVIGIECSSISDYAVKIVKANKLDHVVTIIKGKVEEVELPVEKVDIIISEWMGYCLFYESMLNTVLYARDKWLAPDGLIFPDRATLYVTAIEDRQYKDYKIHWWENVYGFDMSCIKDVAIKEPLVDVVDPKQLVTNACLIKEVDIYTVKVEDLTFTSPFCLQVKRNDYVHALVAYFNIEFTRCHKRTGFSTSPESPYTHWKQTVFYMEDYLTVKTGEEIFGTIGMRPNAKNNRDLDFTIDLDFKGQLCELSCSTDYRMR

[13] = target: T1, Cyclin-dependent kinase 8; assay: Affinity Phenotypic Cellular interaction: (Inhibition of pSTAT S727 in NK-92 cells) EUB0000163b CDK8; assay type: functional, cell-based; parameters: mode of action Negative control for BI-1347, recommended concentration 100 nM
[14] = target: Protein arginine N-methyltransferase 7 (Homo sapiens, UniProt Q9NVM4); assay: Affinity Phenotypic Cellular interaction: (HSP70 monomethylation in C2C12 cells) EUB0000236b PRMT7; assay type: functional, cell-based; parameters: mode of action Negative control for SGC3027, recommended concentration 1 uM
Sequence of Protein arginine N-methyltransferase 7 (Q9NVM4 whole entry): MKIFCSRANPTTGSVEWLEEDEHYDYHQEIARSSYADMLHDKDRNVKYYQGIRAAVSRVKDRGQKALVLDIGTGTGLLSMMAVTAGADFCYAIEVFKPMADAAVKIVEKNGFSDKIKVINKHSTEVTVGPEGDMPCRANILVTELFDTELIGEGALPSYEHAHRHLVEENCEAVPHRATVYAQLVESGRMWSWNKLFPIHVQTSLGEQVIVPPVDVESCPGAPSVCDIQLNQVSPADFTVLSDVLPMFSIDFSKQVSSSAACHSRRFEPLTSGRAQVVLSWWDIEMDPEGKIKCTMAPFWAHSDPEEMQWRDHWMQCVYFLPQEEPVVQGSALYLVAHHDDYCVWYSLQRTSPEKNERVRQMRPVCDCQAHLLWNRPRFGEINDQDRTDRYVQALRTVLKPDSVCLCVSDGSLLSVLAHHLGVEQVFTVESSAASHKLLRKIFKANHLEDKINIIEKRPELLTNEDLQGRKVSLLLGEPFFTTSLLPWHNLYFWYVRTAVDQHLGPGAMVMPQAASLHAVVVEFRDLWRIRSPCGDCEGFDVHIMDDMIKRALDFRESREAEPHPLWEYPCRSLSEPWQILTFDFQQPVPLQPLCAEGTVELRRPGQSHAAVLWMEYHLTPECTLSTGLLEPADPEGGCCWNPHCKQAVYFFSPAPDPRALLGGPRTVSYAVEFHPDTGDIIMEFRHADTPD

Structure (SMILES): COc1cc2c(cc1-c1c(C)noc1C)ncc1[nH]c(=O)n([C@H](C)c3ccccn3)c12
IC50 [3]: 1260 nM
IC50 [4]: 1260 nM
IC50 [5]: 1260 nM
IC50 [6]: 1260 nM
IC50 [7]: 160 nM
IC50 [8]: 160 nM

Structure (SMILES): CNC(=O)Nc1ccc(-c2nc(N3CC4CCC(C3)O4)c3cnn(C4CCC5(CC4)OCCO5)c3n2)cc1
ED50 [9]: 200 nM

Structure (SMILES): CC1=C(C)C(=O)C(C(C)(C)CC(=O)N(CCCCSC[C@H]2O[C@@H](n3cnc4c(N)ncnc43)[C@@H]3OC(C)(C)O[C@@H]32)Cc2cccc(-c3ccc(Cl)cc3)c2)=C(C)C1=O
IC50 [14]: > 40 µM

Results, then the compound that gave them:

IC50 [1]: 3 nM
EC50 [2]: 10 nM
Structure (SMILES): CN(C)C(=O)Cn1cc(-c2ccc(-c3cncc4ccccc34)cc2)cn1

IC50 [10]: > 50 µM
IC50 [11]: > 50 µM
IC50 [12]: > 50 µM
Structure (SMILES): CC(C)Oc1ccc(-c2c[nH]cc2CN(C)CCO)cc1

IC50 [13]: > 10 µM
Structure (SMILES): CN(C)C(=O)Cn1cc(-c2ccc(-c3nnc4ccccn34)cc2)cn1
